Measured values from patent publication US8461152B2, “Arylcyclohexylethers of dihydrotetraazabenzoazulenes” (Hoffmann-La Roche Inc., priority 2008, dated 2013).
Where a name gives a salt, the structure may show the parent alone.

Biological target: T1, human V1a receptor (Homo sapiens, UniProt P37288)
T1 construct: expressed in transfected cells; host or cells: HEK293 cells, transiently transfected; membrane preparation
Test: human V1a receptor binding studies (SPA, 3H-Vasopressin, membranes of transfected HEK293 cells)
Settings: displacement of 3H-Vasopressin, HEK293 cell membranes, 1 h at room temperature; Ki by Cheng-Prussoff equation; read-out: pKi (hV1a) (converted)
Method: The human V1a receptor was cloned by RT-PCR from total human liver RNA. The coding sequence was subcloned in an expression vector after sequencing to confirm the identity of the amplified sequence. […] Cell membranes were prepared from HEK293 cells transiently transfected with the expression vector and grown in 20 liter fermenters with the following protocol.
50 g of cells are resuspended in 30 ml freshly prepared ice cold Lysis buffer (50 mM HEPES, 1 mM EDTA, 10 mM magnesium dichloride adjusted to pH=7.4+complete cocktail of protease inhibitor (Roche Diagnostics)). Homogenized with Polytron for 1 min and sonicated on ice for 2×2 minutes at 80% intensity (Vibracell sonicator). The preparation is centrifuged 20 min at 500 g at 4° C., the pellet is discarded and the supernatant centrifuged 1 hour at 43'000 g at 4° C. (19'000 rpm). The pellet is resuspended in 12.5 ml Lysis buffer+12.5 ml Sucrose 20% and homogenized using a Polytron for 1-2 min. The protein concentration is determined by the Bradford method and aliquots are stored at −80° C. until use. For binding studies 60 mg Yttrium silicate SPA beads (Amersham) are mixed with an aliquot of membrane in binding buffer (50 mM Tris, 120 mM sodium chloride, 5 mM potassium chloride, 2 mM Calcium dichloride, 10 mM magnesium dichloride) for 15 minutes with mixing. 50 μl of bead/membrane mixture is then added to each well of a 96 well plate, followed by 50 μl of 4 nM 3H-Vasopressin (American Radiolabeled Chemicals). For total binding measurement 100 μl of binding buffer are added to the respective wells, for non-specific binding 100 μl of 8.4 mM cold vasopressin and for compound testing 100 μl of a serial dilution of each compound in 2% dimethyl sulfoxide. The plate is incubated 1 h at room temperature, centrifuged […] at 1000 g and counted on a Packard Top-Count. Non-specific binding counts are subtracted from each well and data is normalized to the maximum specific binding set at 100%. To calculate an IC 50 the curve is fitted using a non-linear regression model (XLfit) and the Ki is calculated using the Cheng-Prussoff equation.

T1 sequence (P37288 whole entry): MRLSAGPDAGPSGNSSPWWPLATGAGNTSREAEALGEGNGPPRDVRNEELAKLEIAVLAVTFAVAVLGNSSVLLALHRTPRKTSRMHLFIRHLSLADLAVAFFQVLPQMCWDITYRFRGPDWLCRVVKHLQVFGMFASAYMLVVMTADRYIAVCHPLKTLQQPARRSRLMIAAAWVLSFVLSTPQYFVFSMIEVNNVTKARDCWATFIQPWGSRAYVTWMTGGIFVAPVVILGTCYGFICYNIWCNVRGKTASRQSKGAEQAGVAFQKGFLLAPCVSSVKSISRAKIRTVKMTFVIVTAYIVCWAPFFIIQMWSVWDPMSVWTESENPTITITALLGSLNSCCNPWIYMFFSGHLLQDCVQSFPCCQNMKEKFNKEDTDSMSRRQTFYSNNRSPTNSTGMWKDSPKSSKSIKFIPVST

Row | Compound | Ki [nM]
1 | CC(C)(C)OC(=O)N1Cc2cc(Cl)ccc2-n2c(nnc2[C@H]2CC[C@H](Oc3ccccc3)CC2)C1 [Example 1, trans-8-Chloro-1-(4-phenoxy-cyclohexyl)-4H,6H-2,3,5,10b-tetraaza-benzoazulene-5-carboxylic acid tert-butyl ester] | 3.24
2 | Clc1ccc2c(c1)CNCc1nnc([C@H]3CC[C@H](Oc4ccccc4)CC3)n1-2 [Example 2, trans-8-Chloro-1-(4-phenoxy-cyclohexyl)-5,6-dihydro-4H-2,3,5,10b-tetraaza-benzoazulene hydrochloride] | 4.37
3 | CN1Cc2cc(Cl)ccc2-n2c(nnc2[C@H]2CC[C@H](Oc3ccccc3)CC2)C1 [Example 3, trans-8-Chloro-5-methyl-1-(4-phenoxy-cyclohexyl)-5,6-dihydro-4H-2,3,5,10b-tetraaza-benzo[e]azulene] | 1.58
4 | CC(=O)N1Cc2cc(Cl)ccc2-n2c(nnc2[C@H]2CC[C@H](Oc3ccccc3)CC2)C1 [Example 4, trans-1-[8-Chloro-1-(4-phenoxy-cyclohexyl)-4H,6H-2,3,5,10b-tetraaza-benzoazulen-5-yl]-ethanone] | 1.41
5 | CS(=O)(=O)N1Cc2cc(Cl)ccc2-n2c(nnc2[C@H]2CC[C@H](Oc3ccccc3)CC2)C1 [Example 5, trans-8-Chloro-5-methanesulfonyl-1-(4-phenoxy-cyclohexyl)-5,6-dihydro-4H-2,3,5,10b-tetraaza-benzoazulene] | 1.7
6 | OCCN1Cc2cc(Cl)ccc2-n2c(nnc2[C@H]2CC[C@H](Oc3ccccc3)CC2)C1 [Example 6, trans-2-[8-Chloro-1-(4-phenoxy-cyclohexyl)-4H,6H-2,3,5,10b-tetraaza-benzoazulen-5-yl]-ethanol] | 1.58
7 | CC(C)N1Cc2cc(Cl)ccc2-n2c(nnc2[C@H]2CC[C@H](Oc3ccccc3)CC2)C1 [Example 7, trans-8-Chloro-5-isopropyl-1-(4-phenoxy-cyclohexyl)-5,6-dihydro-4H-2,3,5,10b-tetraaza-benzoazulene] | 1.7
8 | CN(C)S(=O)(=O)N1Cc2cc(Cl)ccc2-n2c(nnc2[C@H]2CC[C@H](Oc3ccccc3)CC2)C1 [Example 8, trans-8-Chloro-1-(4-phenoxy-cyclohexyl)-4H,6H-2,3,5,10b-tetraaza-benzoazulene-5-sulfonic acid dimethylamide] | 2
9 | Clc1ccc2c(c1)CN(Cc1ccccn1)Cc1nnc([C@H]3CC[C@H](Oc4ccccc4)CC3)n1-2 [Example 9, trans-8-Chloro-1-(4-phenoxy-cyclohexyl)-5-pyridin-2-ylmethyl-5,6-dihydro-4H-2,3,5,10b-tetraaza-benzoazulene] | 1.82
10 | CN(C)CC(=O)N1Cc2cc(Cl)ccc2-n2c(nnc2[C@H]2CC[C@H](Oc3ccccc3)CC2)C1 [Example 10, trans-1-[8-Chloro-1-(4-phenoxy-cyclohexyl)-4H,6H-2,3,5,10b-tetraaza-benzoazulen-5-yl]-2-dimethylamino-ethanone] | 2.09
11 | CC(C)(C)OC(=O)N1Cc2cc(F)ccc2-n2c(nnc2[C@H]2CC[C@H](Oc3ccccc3)CC2)C1 [Example 11, trans-8-Fluoro-1-(4-phenoxy-cyclohexyl)-4H,6H-2,3,5,10b-tetraaza-benzo[e]azulene-5-carboxylic acid tert-butyl ester] | 5.5
12 | CN1Cc2cc(F)ccc2-n2c(nnc2[C@H]2CC[C@H](Oc3ccccc3)CC2)C1 [Example 13, trans-8-Fluoro-5-methyl-1-(4-phenoxy-cyclohexyl)-5,6-dihydro-4H-2,3,5,10b-tetraaza-benzoazulene] | 5.37
13 | CC(C)(C)OC(=O)N1Cc2cc(Cl)ccc2-n2c(nnc2[C@H]2CC[C@@H](Oc3ccccc3)CC2)C1 [Example 14, cis-8-Chloro-1-(4-phenoxy-cyclohexyl)-4H,6H-2,3,5,10b-tetraaza-benzoazulene-5-carboxylic acid tert-butyl ester] | 9.33
14 | CN1Cc2cc(Cl)ccc2-n2c(nnc2[C@H]2CC[C@@H](Oc3ccccc3)CC2)C1 [Example 16, cis-8-Chloro-5-methyl-1-(4-phenoxy-cyclohexyl)-5,6-dihydro-4H-2,3,5,10b-tetraaza-benzoazulene] | 2.88
15 | CC(C)(C)OC(=O)N1Cc2cc(Cl)ccc2-n2c(nnc2[C@H]2CC[C@H](Oc3ccc(F)cc3)CC2)C1 [Example 17, trans-8-Chloro-1-[4-(4-fluoro-phenoxy)-cyclohexyl]-4H,6H-2,3,5,10b-tetraaza-benzoazulene-5-carboxylic acid tert-butyl ester] | 3.72
16 | Fc1ccc(O[C@H]2CC[C@H](c3nnc4n3-c3ccc(Cl)cc3CNC4)CC2)cc1 [Example 18, trans-8-Chloro-1-[4-(4-fluoro-phenoxy)-cyclohexyl]-5,6-dihydro-4H-2,3,5,10b-tetraaza-benzo[e]azulene hydrochloride] | 9.55
17 | CN1Cc2cc(Cl)ccc2-n2c(nnc2[C@H]2CC[C@H](Oc3ccc(F)cc3)CC2)C1 [Example 19, trans-8-Chloro-1-[4-(4-fluoro-phenoxy)-cyclohexyl]-5-methyl-5,6-dihydro-4H-2,3,5,10b-tetraaza-benzoazulene] | 3.09
18 | CC(C)(C)OC(=O)N1Cc2cc(Cl)ccc2-n2c(nnc2[C@H]2CC[C@H](Oc3ccc(C#N)cc3)CC2)C1 [Example 20, trans-8-Chloro-1-[4-(4-cyano-phenoxy)-cyclohexyl]-4H,6H-2,3,5,10b-tetraaza-benzo[e]azulene-5-carboxylic acid tert-butyl ester] | 7.76
19 | CN1Cc2cc(Cl)ccc2-n2c(nnc2[C@H]2CC[C@H](Oc3ccc(C#N)cc3)CC2)C1 [Example 22, trans-4-[4-(8-Chloro-5-methyl-5,6-dihydro-4H-2,3,5,10b-tetraaza-benzo[e]azulen-1-yl)-cyclohexyloxy]-benzonitrile] | 8.91
20 | CC(C)(C)OC(=O)N1Cc2cc(Cl)ccc2-n2c(nnc2[C@H]2CC[C@H](Oc3ccc(C(F)(F)F)cc3)CC2)C1 [Example 23, trans-8-Chloro-1-[4-(4-trifluoromethyl-phenoxy)-cyclohexyl]-4H,6H-2,3,5,10b-tetraaza-benzo[e]azulene-5-carboxylic acid tert-butyl ester] | 9.12
21 | CC(C)(C)OC(=O)N1Cc2cc(Cl)ccc2-n2c(nnc2[C@H]2CC[C@H](Oc3cccc(Cl)c3)CC2)C1 [Example 26, trans-8-Chloro-1-[4-(3-chloro-phenoxy)-cyclohexyl]-4H,6H-2,3,5,10b-tetraaza-benzoazulene-5-carboxylic acid tert-butyl ester] | 4.17
22 | CN1Cc2cc(Cl)ccc2-n2c(nnc2[C@H]2CC[C@H](Oc3cccc(Cl)c3)CC2)C1 [Example 28, trans-8-Chloro-1-[4-(3-chloro-phenoxy)-cyclohexyl]-5-methyl-5,6-dihydro-4H-2,3,5,10b-tetraaza-benzoazulene] | 3.09
23 | COc1cccc(O[C@H]2CC[C@H](c3nnc4n3-c3ccc(Cl)cc3CN(C(=O)OC(C)(C)C)C4)CC2)c1 [Example 29, trans-8-Chloro-1-[4-(3-methoxy-phenoxy)-cyclohexyl]-4H,6H-2,3,5,10b-tetraaza-benzoazulene-5-carboxylic acid tert-butyl ester] | 4.68
24 | COc1cccc(O[C@H]2CC[C@H](c3nnc4n3-c3ccc(Cl)cc3CNC4)CC2)c1 [Example 30, trans-8-Chloro-1-[4-(3-methoxy-phenoxy)-cyclohexyl]-5,6-dihydro-4H-2,3,5,10b-tetraaza-benzo[e]azulene hydrochloride] | 3.31
25 | COc1cccc(O[C@H]2CC[C@H](c3nnc4n3-c3ccc(Cl)cc3CN(C)C4)CC2)c1 [Example 31, trans-8-Chloro-1-[4-(3-methoxy-phenoxy)-cyclohexyl]-5-methyl-5,6-dihydro-4H-2,3,5,10b-tetraaza-benzoazulene] | 2.09
26 | CN1Cc2cc(Cl)ccc2-n2c(nnc2[C@H]2CC[C@H](Oc3cccc(C#N)c3)CC2)C1 [Example 34, trans-3-[4-(8-Chloro-5-methyl-5,6-dihydro-4H-2,3,5,10b-tetraaza-benzoazulen-1-yl)-cyclohexyloxy]-benzo nitrile] | 2.69
27 | Cc1cccc(O[C@H]2CC[C@H](c3nnc4n3-c3ccc(Cl)cc3CN(C(=O)OC(C)(C)C)C4)CC2)c1 [Example 35, trans-8-Chloro-1-(4-m-tolyloxy-cyclohexyl)-4H,6H-2,3,5,10b-tetraaza-benzo[e]azulene-5-carboxylic acid tert-butyl ester] | 4.9
28 | Cc1cccc(O[C@H]2CC[C@H](c3nnc4n3-c3ccc(Cl)cc3CNC4)CC2)c1 [Example 36, trans-8-Chloro-1-(4-m-tolyloxy-cyclohexyl)-5,6-dihydro-4H-2,3,5,10b-tetraaza-benzo[e]azulene hydrochloride] | 7.59
